Data from publication PMC9098913, “In vitro reconstitution of Escherichia coli divisome activation” (Nature Communications, 2022).

Experiment: Diffusion coefficient (Dcoeff) of FtsA from FRAP
Conditions: for Diffusion Coefficient, mean: Fig. 3j; for Dcoeff: Fig. S3i/S3j
Excerpt: We could also use the data from these bleaching experiments to quantify the membrane-binding kinetics and diffusion of membrane-bound proteins by analysing the change of the fluorescence profile during recovery.
Equimolar concentrations of Cy3- and Cy5-labelled FtsA, supplemented with 20% unlabelled FtsA were used to study FRET and FRAP. Five pre-bleach frames were acquired, followed by acceptor photobleaching of a rectangular ROI with 40% 641 nm laser power and a dwell size of 1 µs/pixel, 75% overlapping lines. The recovery of the signal or the increase in donor intensity were measured with either two frames or one frame per second.
Bleaching the acceptor dye leads to an increase in the donor intensity, which can be used to quantify the Foerster Resonance energy transfer (FRET)[48]. FRET efficiency was quantified with E%=Ipost/Ipost+Ipre⋅100 , where Ipost is the intensity of the […] and Ipre is the […]. […] To extract the contribution of both processes, we adjusted a routine recently published by Gerganova et al.[33]. In short, the code provides the contribution of both modes of recovery by analysing the shape of the fluorescence recovery profile. […] Contribution of diffusion leads to a change of the slope of the outer borders of the bleached region (S4h right). Thus, by measuring the change of the slope of the border recovery, diffusion and simple on/off binding can be distinguished. We developed “FRAPdiff”, a graphical user interface, which uses the original fit routine by David Rutkowski. It can be used directly on.tiff movies with annotated bleach regions as ImageJ ROIs. In addition, we added optional bleach correction, user selectable projection axis (x or y), and optional mirroring of the recovery profiles, if bleaching was not symmetric. The original fit routine for estimating the recovery and diffusion dynamics can be found at https://github.com/davidmrutkowski/1DReflectingDiffusion. FRAPdiff is available at 10.5281/zenodo.6400639[49] under the GPLv3 open-source license.

## FtsA WT: wild-type E. coli actin-homologue FtsA, membrane anchor of FtsZ
0.2µM, + FtsZ, replicate Exp.4
  Diffusion Coefficient: 4.01E-02
0.2µM, + FtsZ, replicate Exp.5
  Diffusion Coefficient: 7.03E-05
0.2µM, + FtsZ, replicate Exp.6
  Diffusion Coefficient: 2.65E-03
0.2µM, + FtsZ, replicate Exp.7
  Diffusion Coefficient: 9.70E-04
0.4 µM FtsA + N
  Diffusion Coefficient, mean: 1.74E-03 µm2/s
0.4 µM FtsA + Z&N
  Diffusion Coefficient, mean: 1.31E-03 µm2/s
0.4 µM FtsA + Z
  Diffusion Coefficient, mean: 9.28E-04 µm2/s
0.4µM FtsA alone, Mean, n=18 (WT), 9 (R286W)
  Diffusion Coefficient: 0.0094
0.4 µM FtsA alone
  Diffusion Coefficient, mean: 9.38E-03 µm2/s
0.4µM FtsA alone, replicate Exp.1
  Diffusion Coefficient: 1.66E-03
0.4µM FtsA alone, replicate Exp.10
  Diffusion Coefficient: 2.61E-04
0.4µM FtsA alone, replicate Exp.11
  Diffusion Coefficient: 2.61E-03
0.4µM FtsA alone, replicate Exp.12
  Diffusion Coefficient: 1.80E-02
0.4µM FtsA alone, replicate Exp.13
  Diffusion Coefficient: 3.92E-03
0.4µM FtsA alone, replicate Exp.14
  Diffusion Coefficient: 4.91E-02
0.4µM FtsA alone, replicate Exp.15
  Diffusion Coefficient: 1.40E-02
0.4µM FtsA alone, replicate Exp.16
  Diffusion Coefficient: 4.71E-05
0.4µM FtsA alone, replicate Exp.17
  Diffusion Coefficient: 6.43E-03
0.4µM FtsA alone, replicate Exp.18
  Diffusion Coefficient: 3.05E-04
0.4µM FtsA alone, replicate Exp.2
  Diffusion Coefficient: 7.21E-03
0.4µM FtsA alone, replicate Exp.3
  Diffusion Coefficient: 3.35E-02
0.4µM FtsA alone, replicate Exp.4
  Diffusion Coefficient: 6.07E-07
0.4µM FtsA alone, replicate Exp.5
  Diffusion Coefficient: 4.86E-04
0.4µM FtsA alone, replicate Exp.6
  Diffusion Coefficient: 1.29E-02
0.4µM FtsA alone, replicate Exp.7
  Diffusion Coefficient: 1.54E-02
0.4µM FtsA alone, replicate Exp.8
  Diffusion Coefficient: 3.15E-04
0.4µM FtsA alone, replicate Exp.9
  Diffusion Coefficient: 2.76E-03
0.4 µM FtsA, FRAP, p-value […] 10^−6
  Diffusion Coefficient: 0.01 ± 0.01 µm^2/s
0.4µM, + FtsN&Z, Mean, n=6 (WT), 9 (R286W)
  Diffusion Coefficient: 0.0013
0.4µM, + FtsN&Z, replicate Exp.1
  Diffusion Coefficient: 7.97E-04
0.4µM, + FtsN&Z, replicate Exp.2
  Diffusion Coefficient: 2.09E-03
0.4µM, + FtsN&Z, replicate Exp.3
  Diffusion Coefficient: 9.40E-04
0.4µM, + FtsN&Z, replicate Exp.4
  Diffusion Coefficient: 3.16E-04
0.4µM, + FtsN&Z, replicate Exp.5
  Diffusion Coefficient: 3.44E-03
0.4µM, + FtsN&Z, replicate Exp.6
  Diffusion Coefficient: 3.02E-04
0.4µM, + FtsN, Mean, n=5 (WT), 6 (R286W)
  Diffusion Coefficient: 0.0017
0.4µM, + FtsN, replicate Exp.1
  Diffusion Coefficient: 1.54E-03
0.4µM, + FtsN, replicate Exp.2
  Diffusion Coefficient: 2.97E-03
0.4µM, + FtsN, replicate Exp.3
  Diffusion Coefficient: 2.28E-03
0.4µM, + FtsN, replicate Exp.4
  Diffusion Coefficient: 1.80E-03
0.4µM, + FtsN, replicate Exp.5
  Diffusion Coefficient: 1.27E-04
0.4µM, + FtsZ, Mean, n=5 (WT), 8 (R286W)
  Diffusion Coefficient: 0.0009
0.4µM, + FtsZ, replicate Exp.1
  Diffusion Coefficient: 1.81E-03
0.4µM, + FtsZ, replicate Exp.2
  Diffusion Coefficient: 9.21E-04
0.4µM, + FtsZ, replicate Exp.3
  Diffusion Coefficient: 2.54E-06
0.4µM, + FtsZ, replicate Exp.4
  Diffusion Coefficient: 1.48E-07
0.4µM, + FtsZ, replicate Exp.5
  Diffusion Coefficient: 1.91E-03
0.8 µM FtsA + N
  Diffusion Coefficient, mean: 2.78E-04 µm2/s
0.8 µM FtsA + Z&N
  Diffusion Coefficient, mean: 1.55E-03 µm2/s
0.8 µM FtsA + Z
  Diffusion Coefficient, mean: 1.98E-04 µm2/s
0.8µM FtsA alone, Mean, n=19 (WT), 8 (R286W)
  Diffusion Coefficient: 0.0008
0.8 µM FtsA alone
  Diffusion Coefficient, mean: 8.23E-04 µm2/s
0.8µM FtsA alone, replicate Exp.1
  Diffusion Coefficient: 7.29E-03
0.8µM FtsA alone, replicate Exp.10
  Diffusion Coefficient: 4.22E-07
0.8µM FtsA alone, replicate Exp.11
  Diffusion Coefficient: 6.76E-05
0.8µM FtsA alone, replicate Exp.12
  Diffusion Coefficient: 1.41E-04
0.8µM FtsA alone, replicate Exp.13
  Diffusion Coefficient: 9.30E-04
0.8µM FtsA alone, replicate Exp.14
  Diffusion Coefficient: 4.15E-06
0.8µM FtsA alone, replicate Exp.15
  Diffusion Coefficient: 1.75E-03
0.8µM FtsA alone, replicate Exp.16
  Diffusion Coefficient: 1.00E-03
0.8µM FtsA alone, replicate Exp.17
  Diffusion Coefficient: 1.78E-04
0.8µM FtsA alone, replicate Exp.18
  Diffusion Coefficient: 3.36E-03
0.8µM FtsA alone, replicate Exp.19
  Diffusion Coefficient: 2.24E-04
0.8µM FtsA alone, replicate Exp.2
  Diffusion Coefficient: 2.12E-04
0.8µM FtsA alone, replicate Exp.3
  Diffusion Coefficient: 6.52E-08
0.8µM FtsA alone, replicate Exp.4
  Diffusion Coefficient: 1.44E-04
0.8µM FtsA alone, replicate Exp.5
  Diffusion Coefficient: 5.47E-08
0.8µM FtsA alone, replicate Exp.6
  Diffusion Coefficient: 4.93E-07
0.8µM FtsA alone, replicate Exp.7
  Diffusion Coefficient: 2.75E-04
0.8µM FtsA alone, replicate Exp.8
  Diffusion Coefficient: 6.96E-06
0.8µM FtsA alone, replicate Exp.9
  Diffusion Coefficient: 4.32E-05
0.8µM, + FtsN&Z, Mean, n=5 (WT), 4 (R286W)
  Diffusion Coefficient: 0.0015
0.8µM, + FtsN&Z, replicate Exp.1
  Diffusion Coefficient: 2.13E-03
0.8µM, + FtsN&Z, replicate Exp.2
  Diffusion Coefficient: 1.07E-06
0.8µM, + FtsN&Z, replicate Exp.3
  Diffusion Coefficient: 6.03E-04
0.8µM, + FtsN&Z, replicate Exp.4
  Diffusion Coefficient: 3.04E-03
0.8µM, + FtsN&Z, replicate Exp.5
  Diffusion Coefficient: 1.98E-03
0.8µM, + FtsN, Mean, n=4 (WT), 3 (R286W)
  Diffusion Coefficient: 0.000278
0.8µM, + FtsN, replicate Exp.1
  Diffusion Coefficient: 2.14E-05
0.8µM, + FtsN, replicate Exp.2
  Diffusion Coefficient: 6.16E-05
0.8µM, + FtsN, replicate Exp.3
  Diffusion Coefficient: 1.34E-04
0.8µM, + FtsN, replicate Exp.4
  Diffusion Coefficient: 8.93E-04
0.8µM, + FtsZ, Mean, n=3 (WT), 8 (R286W)
  Diffusion Coefficient: 0.0002
0.8µM, + FtsZ, replicate Exp.1
  Diffusion Coefficient: 7.26E-07
0.8µM, + FtsZ, replicate Exp.2
  Diffusion Coefficient: 4.83E-04
0.8µM, + FtsZ, replicate Exp.3
  Diffusion Coefficient: 1.10E-04
0.10 µM FtsA, replicate 1
  Dcoeff: 5.58E-02 µm2/s
0.10 µM FtsA, replicate 2
  Dcoeff: 3.42E-03 µm2/s
0.10 µM FtsA, replicate 3
  Dcoeff: 1.87E-02 µm2/s
0.10 µM FtsA, replicate 4
  Dcoeff: 5.22E-02 µm2/s
0.10 µM FtsA, summary value
  Dcoeff: 2.68E-02 µm2/s
0.20 µM FtsA, summary value
  Dcoeff: 1.77E-02 µm2/s
0.40 µM FtsA, summary value
  Dcoeff: 9.38E-03 µm2/s
0.80 µM FtsA, summary value
  Dcoeff: 8.23E-04 µm2/s
